One assay has as its target T1, FPR2 (Homo sapiens, UniProt P25090).
T1 construct: expressed in transfected cells; host or cells: RBL cells overexpressing FPR2 (FPR2-RBL)
T1 sequence (P25090 1-351): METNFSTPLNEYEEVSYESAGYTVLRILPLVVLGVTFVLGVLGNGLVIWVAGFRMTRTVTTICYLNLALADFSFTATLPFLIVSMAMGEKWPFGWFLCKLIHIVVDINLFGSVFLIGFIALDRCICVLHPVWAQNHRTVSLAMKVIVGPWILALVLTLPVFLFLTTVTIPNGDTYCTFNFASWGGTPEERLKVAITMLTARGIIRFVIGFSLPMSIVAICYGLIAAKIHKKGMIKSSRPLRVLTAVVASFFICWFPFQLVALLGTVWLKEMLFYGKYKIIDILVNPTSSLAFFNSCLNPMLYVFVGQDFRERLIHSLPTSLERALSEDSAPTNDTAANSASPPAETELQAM
Briefly: FPR2 activation by intracellular calcium ion increase (Fura-2/AM) in FPR2-RBL cells. The conditions noted are these: RBL cells overexpressing FPR2. It counts as cell-based. On the procedure:
The present inventors observed a change in calcium ion permeability of the candidate peptides according to an embodiment of the present invention in order to determine whether they can activate the immunomodulatory function in a body or not. Particularly, intracellular concentration of calcium ions was measured to confirm that the peptide activates FPR2. RBL cells that do neither express FPR1 nor FPR2, RBL cells overexpressed FPR1 (FPR1-RBL) and RBL cells that overexpressed FPR2 (FPR2-RBL) were used and Fura-2/AM which is a fluorophore having high binding affinity to calcium in order to measure intracellular calcium ion level sensitively. For this purpose, cells were cultured in RPMI medium supplemented with 10% fetal bovine serum and harvested by centrifugation in log phase (mid-log phase, 1-3×10^7 cells/ml), and then washed several times with RPMI medium not supplemented with fetal bovine serum, and then the cells were resuspended in RPMI medium to 1×10^7 cells/ml. Subsequently, a final 3 μM concentration of Fura-2/AM was added and the cells were incubated for 45 minutes in a 37° C., 5% CO2 incubator. After the appropriated time, the cells are harvested, washed again with RPMI medium, and then suspended in the appropriate amount of RPMI medium supplemented with 250 μM of sulfinpyrazone, in order to prevent loss of Fura-2 entering the cells. About 2×10^6 cells were taken each time, harvested by rapid centrifugation, and resuspended in 1 ml of a Locke solution without addition of calcium ions and EGTA added, and the ratio of absorbance at two wavelengths of 340 nm and 380 nm on a spectrophotometer were monitored by treating the peptides according to an embodiment of the present invention at different concentrations (1 μM, 0.1 μM, and 0.01 μM) at intervals of about 1 minute, and then the difference in absorbance at two wavelengths was investigated. It was converted to the concentration of free calcium ions into cells according to the method of Grynkiewicz.
On the technique in general: Calcium assays in cells follow changes in intracellular calcium, usually with a dye or a luminescent sensor.

The subject of a further assay is P. aeruginosa. It counts as cell-based, Pseudomonas aeruginosa. The conditions noted are these: 18 h. On the procedure: (§1) The present inventors evaluated […] in order to select peptides showing excellent performance among various peptides synthesized in the Example 1. Particularly, in order to measure the antimicrobial activity of the peptide, after preparing Gram-positive bacteria Staphylococcus aureus (S. aureus) and Gram-negative bacteria Pseudomonas aeruginosa (P. aeruginosa), the bacteria were plated on agar plate medium by fourth streaking and cultured overnight in a 36° C. incubator. The next day, the strain colonies produced on the agar plate medium were inoculated into 3 ml nutrient medium and cultured overnight in a stirring incubator at 36° C. and 220 rpm. The next day, the bacteria were diluted to measure absorbance at 600 nm, adjusted to OD600=0.5, and diluted in a 1:100 ratio in nutrient medium. Then, the peptides prepared in the above Examples were serially diluted in concentrations of 0, 1.25, 2.5, 5, 10, and 20 μM in a nutrient medium to prepare 1 ml each, and then inoculated with 1 ml of the diluted bacteria. Subsequently, the mixture was stirred under conditions of 36° C. and 220 rpm, and incubated for 18 hours, and absorbance at 600 nm was measured.
(§2) As a result, 20 peptides showing high antibacterial activity against P. aeruginosa and S. aureus) were selected (FIGS. 2 and 3).

A further assay concerns S. aureus. It counts as cell-based, Staphylococcus aureus. The conditions noted are these: 18 h. On the procedure: as §1, §2

The values that follow come from patent publication US11382946B2, “Multi-functional peptides and use thereof” (NOVACELL TECHNOLOGY INC., priority 2019, dated 2022).

Non-standard residues stand in square brackets, D forms with d. Residues, ends and D or L forms follow the SMILES beside them. *: point of attachment. 2Nal = N[C@@H](Cc1ccc2ccccc2c1)C(=O)O; Nle = CCCC[C@H](N)C(=O)O; Octanoyl = CCCCCCCC(=O)*

For `CSCC[C@@H](NC(=O)[C@H](Cc1c[nH]c2ccccc12)NC(=O)[C@H](CCCNC(=N)N)NC(=O)[C@H](Cc1c[nH]c2ccccc12)NC(=O)[C@H](Cc1c[nH]c2ccccc12)NC(=O)[C@H](CCCNC(=N)N)NC(=O)[C@H](Cc1ccc2ccccc2c1)NC(C)=O)C(N)=O` [Peptide V19_Ac, Ac-ZRWWRWm-NH2] (Ac-[2Nal]RWWRW[dM]-NH2), the EC50 (as a rule, the concentration at which the effect is half-maximal) on FPR2 was 69.4 nM. Further, the “Antimicrobial activity (IC50, μg/ml) P. aeruginosa” value in the assay on P. aeruginosa is greater than 50 µg/mL. The “Antimicrobial activity (IC50, μg/ml) S. aureus” value in the assay with S. aureus came to 5.4 µg/mL.

As to `CCCCCCCC(=O)N[C@@H](CCCNC(=N)N)C(=O)N[C@@H](Cc1c[nH]c2ccccc12)C(=O)N[C@@H](CCCNC(=N)N)C(=O)N[C@@H](Cc1c[nH]c2ccccc12)C(=O)N[C@@H](CCCC)C(=O)N[C@@H](Cc1ccc(O)cc1)C(=O)N[C@H](CCSC)C(N)=O` [Peptide V5, Oct-RWRW-Nle-Ym-NH2] (Octanoyl-RWRW[Nle]Y[dM]-NH2), the EC50 on FPR2 amounted to 41.5 nM. In the assay with P. aeruginosa, the “Antimicrobial activity (IC50, μg/ml) P. aeruginosa” value is greater than 50 µg/mL. Besides, the “Antimicrobial activity (IC50, μg/ml) S. aureus” value in the assay on S. aureus was found to be 2.0 µg/mL.

Take `CSCC[C@@H](NC(=O)[C@H](Cc1c[nH]c2ccccc12)NC(=O)[C@H](CCCNC(=N)N)NC(=O)[C@H](Cc1c[nH]c2ccccc12)NC(=O)[C@H](Cc1c[nH]c2ccccc12)NC(=O)[C@H](CCCNC(=N)N)NC(=O)[C@H](CCCNC(=N)N)NC(C)=O)C(N)=O` [Peptide V24_Ac, Ac-RRWWRWm-NH2] (Ac-RRWWRW[dM]-NH2): the EC50 at FPR2 is 58.6 nM. Also, in the assay with P. aeruginosa, the “Antimicrobial activity (IC50, μg/ml) P. aeruginosa” value stood at 47.8 µg/mL. Besides, in the assay with S. aureus, the “Antimicrobial activity (IC50, μg/ml) S. aureus” value is 24.0 µg/mL.
